Literature values, collected in patent US20220265733A1, “COMPOSITIONS COMPRISING BACTERIAL STRAINS” (4D Pharma Research Limited, priority 2019, published 2022).

Key:
class I HDAC = conditions: reference [70]
DSS-colitis murine model = conditions: reference [70]

CCCC(CCC)C(=O)O [valproic acid]
HDAC inhibition (class I HDAC): associated with class I HDAC inhibition | colitis (DSS-colitis murine model): amelioration
